According to patent publication US9670126B2, “Methods of making 15-hydroxy fatty acid derivatives” (Dignity Sciences Limited, priority 2013, dated 2017):

How the values were obtained:
[1] = Heat stability trial of HETrE under solvent removal conditions (reflux in 40% MtBE:cyclohexane), UPLC; assay type: physicochemical
Description: (§1) Previously, neat HETrE heated at 50° C.
A heat stability trial was conducted where a solution of HETrE (˜9.1 g) in 500 mL 40% MtBE: cyclohexane was heated at 75° C. (external oil bath temperature) at 400 mbar vacuum (condenser coolant temperature −0° C.). This established a gentle reflux. The solution was protected from light. Samples were withdrawn at various time points, under a nitrogen atmosphere, and analysed by UPLC (252 nm) (FIG. 15).
The conditions were designed to mimic the likely conditions encountered on a plant scale solvent removal from pooled column fractions. […] The reflux was extended over a further 112 hours.

[2] = Neat HETrE heated at 50° C. under vacuum; assay type: physicochemical; details: under vacuum (1822-129-4E), 1 major impurity, ester formed with itself
Description: as §1

[3] = Solubility (reactor cleaning); details: residues
[4] = cited from earlier work
[5] = Storage stability of freeze dried enzyme, judged in the DGLA reaction; details: stored at ambient, atmospheric conditions for two weeks; then 1.8 Munits/g DGLA
Description: It was also observed that the freeze dried enzyme supplied had good stability. Although recommended to be stored at −20° C., and desiccated after use, the batch was stored at ambient, atmospheric conditions for two weeks before being utilised in a reaction using the optimised enzyme loadings (1.8 Munits/g DGLA). […] The reaction was carried out in buffer solution to maintain pH and solubilise reaction components. Cysteine, a mild reducing agent, was used in place of sodium borohydride. Use of cysteine enabled the oxidation/reduction reaction to be carried out in one step. In addition no flammable hydrogen was generated during reaction/quench. Furthermore, fewer over-oxidation products were produced, likely due to cysteine's anti-oxidant properties. It is also believed that the addition of the reducing agent at beginning of the process helps to lessen irreversible enzyme inactivation by high concentrations of hydroperoxide, thus leading to lower enzyme requirement (e.g., cost savings) and lower potential for over-oxidation.

CCCCC[C@H](O)/C=C/C=C\C/C=C\CCCCCCC(=O)O [15(S)-HETrE, 15-(S)-hydroxyeicosatrienoic acid]
degradation on extended refluxing ([1]; 4.5 days refluxing in 40% MtBE:cyclohexane, external temperature 75° C.): did not cause significant degradation
degradation under plant-typical solvent evaporation conditions ([1]; in solution and on hot surfaces, timescale of <2 days): no significant degradation
degradation of neat material [2]: showed degradation
solubility in alcohols such as ethanol and methanol, or acetone [3]: readily soluble

N[C@@H](CS)C(=O)O [Cysteine]
solubility in ethanol ([4]; 19° C.): 1.5 g/100 g of ethanol

N[C@@H](CSSC[C@H](N)C(=O)O)C(=O)O [cystine]
solubility in 1M HCl with heating ([4]; 1M HCl with heating): 50 mg/mL
solubility in basic solutions ([4]; basic solutions): soluble

B1: freeze dried enzyme: commercial freeze-dried soybean lipoxygenase (protein, UniProt P08170 1-839, looked up)
Seed linoleate …: MFSAGHKIKGTVVLMPKNELEVNPDGSAVDNLNAFLGRSVSLQLISATKADAHGKGKVGKDTFLEGINTSLPTLGAGESAFNIHFEWDGSMGIPGAFYIKNYMQVEFFLKSLTLEAISNQGTIRFVCNSWVYNTKLYKSVRIFFANHTYVPSETPAPLVSYREEELKSLRGNGTGERKEYDRIYDYDVYNDLGNPDKSEKLARPVLGGSSTFPYPRRGRTGRGPTVTDPNTEKQGEVFYVPRDENLGHLKSKDALEIGTKSLSQIVQPAFESAFDLKSTPIEFHSFQDVHDLYEGGIKLPRDVISTIIPLPVIKELYRTDGQHILKFPQPHVVQVSQSAWMTDEEFAREMIAGVNPCVIRGLEEFPPKSNLDPAIYGDQSSKITADSLDLDGYTMDEALGSRRLFMLDYHDIFMPYVRQINQLNSAKTYATRTILFLREDGTLKPVAIELSLPHSAGDLSAAVSQVVLPAKEGVESTIWLLAKAYVIVNDSCYHQLMSHWLNTHAAMEPFVIATHRHLSVLHPIYKLLTPHYRNNMNINALARQSLINANGIIETTFLPSKYSVEMSSAVYKNWVFTDQALPADLIKRGVAIKDPSTPHGVRLLIEDYPYAADGLEIWAAIKTWVQEYVPLYYARDDDVKNDSELQHWWKEAVEKGHGDLKDKPWWPKLQTLEDLVEVCLIIIWIASALHAAVNFGQYPYGGLIMNRPTASRRLLPEKGTPEYEEMINNHEKAYLRTITSKLPTLISLSVIEILSTHASDEVYLGQRDNPHWTSDSKALQAFQKFGNKLKEIEEKLVRRNNDPSLQGNRLGPVQLPYTLLYPSSEEGLTFRGIPNSISI
performance after storage [5]: No deterioration in performance
